# From patent publication US20110034510A1, “ENANTIOMER-ENRICHED ALPHA-,OMEGA-AMINO ALCOHOL DERIVATIVES, THEIR PRODUCTION AND USE AS INSECT- AND MITE-REPELLING AGENTS” (SALTIGO GMBH, priority 2006, published 2011)
# Key:
# [1] = test system: Aedes aegypti; assay: Repellent test on a guinea pig (Aedes aegypti); type: in vivo; settings: shaved guinea pig back (50 cm^2) treated with 0.4 ml of solution, 3 parts by weight active ingredient in 100 parts by volume ethanol; bites observed 10 minutes, repeated hourly, maximum 9 hours
# Description: A) Repellent Test on a Guinea Pig
# Test Animal: Aedes aegypti (Imagines)
# 3 parts by weight of active ingredient are taken up in 100 parts by volume of solvent
# A guinea pig whose back has been shaved in an area of 50 cm^2 is accommodated in a box such that only the shaved area is accessible to the mosquitoes.
# It is observed for 10 minutes how many mosquitoes bite the guinea pig. Subsequently, it is removed and the test is repeated after 1 hour. The experiment is performed for a maximum of 9 hours or until the effect ceases.
# [2] = test system: mosquitoes; assay: Repellent test against mosquitoes on the human lower arm; type: in vivo; settings: compared to the standard racemic mixture; 150 μl test product on 90 cm^2 of human lower arm; 3-minute exposure every hour for up to 8 hours
# Text: B) Repellent Effectiveness of Formulations for Use Against Mosquitoes on the Human Arm: […]
# The insects, as an actively biting population (approx. 1000 mosquitoes of both genders), are kept in cages (length 90 cm, width 30 cm, height 40 cm, side walls made of gauze) which have two light fabric gates on the front side. The insects have been fed exclusively with sugared water (10% Dextropur). The age of the insects is at least 7 days; the number of insects is made up twice per week by 3-day old fully grown insects.
# The low electrical illumination of the cage is active from 6 am to 6 pm, with light from 6 pm to 6 am. The temperature is 25-27° C.; the relative air humidity is 50-70%.
# The lower arms of the test subjects are washed with unperfumed soap, rinsed with water, then rinsed with a solution of 70% ethanol and 30% water, and dried with a towel.
# 90 cm^2 of each lower arm of a test subject is rubbed uniformly with 150 μl (or 150 mg) of the test product. As soon as the formulation is dry (after approx. 5 minutes), a sleeve with an opening of 3.1-8 cm (25 cm^2) is bound around the arm such that the opening is completely over the treated surface. The corners of the opening of the sleeve have likewise been rubbed with the test material (2000) in a width of 1 cm in order to prevent bites at the corners. The area above the sleeve has been protected with a towel through which the mosquitoes cannot penetrate. Hands are protected with latex gloves.
# Both arms are introduced into the cage through the fabric gate, and the number of bites (and landings, if necessary) per arm is noted within a 3-minute test period. The test is repeated every hour for up to 8 hours, or ended beforehand if the effect ceases (3 or more bites within 3 minutes or during 2 successive test sequences). Each test consists of three to 5 test subjects.
SMILES,Protection time [1] [h],Increase in the protection time* in % [2] [%]
"CC[C@@H](C)OC(=O)N1CCCC[C@@H]1CCO (single isomer, unassigned)",4.4,3
CC[C@H](C)OC(=O)N1CCCC[C@@H]1CCO (stereo in doubt) [1-[(S)-sec-butyloxycarbonyl]-2-(R)-(+)-(2-hydroxyethyl)piperidine],4.9,0
CC[C@H](C)OC(=O)N1CCCC[C@H]1CCO [1-[(S)-sec-butyloxycarbonyl]-2-(S)-(2-hydroxyethyl)piperidine],3.9,0
CCC(C)OC(=O)N1CCCCC1CCO (stereo in doubt) [1-[(R)-sec-butyloxycarbonyl]-2-(S)-(+)-(2-hydroxyethyl)piperidine],3.4,12
